One may read the ED50 as the midpoint of the dose-response relation. Read a high ED50 as a need for a large dose. The term TD50 denotes the dose at which the toxic effect under study appears in half of the subjects. Higher therefore signals harm only at a large dose.

The species entered for data set [1] is Mus musculus. As to the kind of experiment: Anticonvulsant activity in mice, measured by maximal electroshock seizure (MES) test. The class given is functional. For orientation: Protection in the maximal electroshock model is a classic sign of anticonvulsant action.
The species named for data set [2] is Mus musculus. Briefly: Neurological deficit in mouse measured by rotarod test. The class given is functional. For orientation: The rotarod test checks motor coordination on a turning rod.
The subject of data set [3] is Mus musculus. As to the kind of experiment: Anticonvulsant activity in mice, measured by subcutaneous pentylenetetrazole seizure (scMet) test. The settings on record: sc. The class given is functional.
Data set [4] can be described thus: Protective index (PI),anticonvulsant activity, ratio of TD50/ED50 value in scMet test. The class given is ADME, organism-based. The conditions noted are these: mouse, in vivo.
The nature of data set [5]: Protective index (PI), anticonvulsant activity, ratio of TD50/ED50 value in maximal electroconvulsive shock seizure (MES) test. The settings on record: mouse, in vivo. The class given is ADME, organism-based.
A short description of data set [6]: Protective index (Pi) was measured as the ratio of TD50/ED50 value in MES test. The class given is ADME.

Take `Fc1ccc(-n2nncc2-c2ccncc2)cc1`: the ED50 came to 91.6 mg/kg in the data set filed under Mus musculus [1] and 119 mg/kg in the data set on Mus musculus [3]. For the same molecule, the TD50 in the data set filed under Mus musculus [2] was 181 mg/kg. For the same molecule, the selectivity ratio in data set [4] amounted to 1.5; in data set [5], 2.

Molecule `COc1ccc(-n2nncc2-c2ccncc2)cc1` had an ED50 in the data set filed under Mus musculus [1] of 311 mg/kg. Moreover, the TD50 in the data set listed under Mus musculus [2] turned out to be 545 mg/kg. Further, the selectivity ratio in data set [6] was found to be 1.75.

With `Clc1ccc(-n2nncc2-c2cccnc2)cc1`, the ED50 is 65.8 mg/kg in the data set listed under Mus musculus [1] and 26.9 mg/kg in the data set with Mus musculus [3]. In addition, in the data set listed under Mus musculus [2], the TD50 amounted to 245 mg/kg. The values for the selectivity ratio in data set [4] and in data set [5] were 9.1 and 3.7, respectively.

For `Fc1ccc(-n2nncc2-c2ccccn2)cc1F`, the results for the median effective dose (ED50) in the data set listed under Mus musculus [1] and in the data set with Mus musculus [3] were 62.5 mg/kg and 123 mg/kg, respectively. Further, the TD50 in the data set filed under Mus musculus [2] is 123 mg/kg. Further, the selectivity ratio in data set [4] turned out to be 1.6; in data set [5], 3.1.

For the molecule `CCC1(C)CC(=O)NC1=O` (configuration not stated) [ETHOSUXIMIDE], the TD50 in the data set filed under Mus musculus [2] is 441 mg/kg. In the data set on Mus musculus [3], this molecule showed an ED50 of 130 mg/kg.

In the case of `c1ccc(-n2nncc2-c2ccncc2)cc1`, the ED50 turned out to be 78.8 mg/kg in the data set filed under Mus musculus [1] and 73.7 mg/kg in the data set on Mus musculus [3]. In the data set filed under Mus musculus [2], this molecule returned a TD50 of 157 mg/kg. For the same molecule, the selectivity ratio worked out at 2.1 in data set [4] and 2 in data set [5].

`CCC1(c2ccccc2)C(=O)NC(=O)NC1=O` [PHENOBARBITAL] yielded a TD50 in the data set filed under Mus musculus [2] of 69 mg/kg.

On to `CCCC(CCC)C(=O)O` [VALPROIC ACID], for which the ED50 in the data set filed under Mus musculus [1] was 272 mg/kg; in the data set with Mus musculus [3], 149 mg/kg.

Turning to `FC(F)(F)c1cccc(N2N=NCC2c2ccncc2)c1` (configuration not stated), the ED50 in the data set listed under Mus musculus [1] came out at 52.1 mg/kg; in the data set on Mus musculus [3], 51 mg/kg. Also, in the data set filed under Mus musculus [2], the TD50 was found to be 137 mg/kg. Also, the figures for the selectivity ratio in data set [4] and in data set [5] were 2.69 and 2.63, respectively.

In the data set listed under Mus musculus [1], `Clc1ccc(N2N=NCC2c2ccncc2)cc1` (configuration not stated) had an ED50 of 257 mg/kg. In the data set filed under Mus musculus [2], the TD50 stood at 1130 mg/kg. Moreover, the selectivity ratio in data set [4] was determined as 26; in data set [5], 4.4.

As to `Brc1ccc(-n2nncc2-c2ccccn2)cc1`, the ED50 in the data set filed under Mus musculus [1] turned out to be 68 mg/kg; in the data set with Mus musculus [3] it was 88.6 mg/kg. The molecule further had a TD50 in the data set listed under Mus musculus [2] of 265 mg/kg. In addition, the selectivity ratio is 3 in data set [4] and 3.9 in data set [5].

In the case of `Fc1ccc(-n2nncc2-c2cccnc2)cc1`, the ED50 was 74.6 mg/kg in the data set filed under Mus musculus [1] and 47.9 mg/kg in the data set with Mus musculus [3]. Also, the TD50 in the data set listed under Mus musculus [2] amounted to 168 mg/kg. For the same molecule, the selectivity ratio in data set [4] amounted to 3.5; in data set [5] it was 2.5.

With `c1ccc(-n2nncc2-c2cccnc2)cc1`, the 50% effective dose (ED50) came out at 76.4 mg/kg in the data set filed under Mus musculus [1] and 39.7 mg/kg with Mus musculus [3]. The molecule further yielded a TD50 in the data set listed under Mus musculus [2] of 133 mg/kg. Moreover, the selectivity ratio in data set [4] was determined as 3.3; in data set [5], 1.7.

As to `Clc1ccc(-n2nncc2-c2ccccn2)cc1`, the ED50 in the data set filed under Mus musculus [1] stood at 95.2 mg/kg; with Mus musculus [3], 50.4 mg/kg. In addition, in the data set filed under Mus musculus [2], the TD50 came out at 234 mg/kg. Further, the selectivity ratio was 4.6 in data set [4] and 2.5 in data set [5].

Regarding `Clc1cccc(-n2nncc2-c2ccncc2)c1`, the values for the ED50 in the data set listed under Mus musculus [1] and in the data set with Mus musculus [3] were 38 mg/kg and 29.2 mg/kg, respectively. Moreover, the TD50 in the data set filed under Mus musculus [2] came out at 68.7 mg/kg. The values for the selectivity ratio in data set [4] and in data set [5] were 2.4 and 1.8, respectively.

In the case of `FC(F)(F)c1cccc(-n2nncc2-c2ccncc2)c1`, the ED50 in the data set filed under Mus musculus [1] came out at 68.2 mg/kg; in the data set with Mus musculus [3], 44.7 mg/kg. In the data set filed under Mus musculus [2], the TD50 turned out to be 68 mg/kg. Moreover, the selectivity ratio was determined as 1.52 in data set [4] and 0.99 in data set [5].

With `Brc1ccc(-n2nncc2-c2cccnc2)cc1`, the figures for the ED50 in the data set listed under Mus musculus [1] and in the data set with Mus musculus [3] were 87.2 mg/kg and 40.6 mg/kg, respectively. This molecule displayed a TD50 in the data set filed under Mus musculus [2] of 496 mg/kg. For the same molecule, the selectivity ratio was determined as 12.2 in data set [4] and 5.7 in data set [5].

Take `FC(F)(F)c1ccc(-n2nncc2-c2cccnc2)cc1`: the ED50 in the data set listed under Mus musculus [1] is 92.3 mg/kg; with Mus musculus [3], 90.5 mg/kg. In the data set filed under Mus musculus [2], this molecule displayed a TD50 of 379 mg/kg. Besides, the values for the selectivity ratio in data set [4] and in data set [5] were 4.2 and 4.1, respectively.

For the molecule `c1ccc(-n2nncc2-c2ccccn2)cc1`, the ED50 turned out to be 41.1 mg/kg in the data set listed under Mus musculus [1] and 25.6 mg/kg in the data set with Mus musculus [3]. This molecule also came in with a TD50 in the data set listed under Mus musculus [2] of 87.9 mg/kg. Moreover, the figures for the selectivity ratio in data set [4] and in data set [5] were 3.4 and 2.1, respectively.

`FC(F)(F)c1ccc(N2N=NCC2c2ccncc2)cc1` (configuration not stated): the ED50 in the data set listed under Mus musculus [1] stood at 689 mg/kg; in the data set with Mus musculus [3], 421 mg/kg. In the data set listed under Mus musculus [2], this molecule showed a TD50 of over 2000 mg/kg. The selectivity ratio is over 4.8 in data set [4] and over 2.9 in data set [5].

For `Fc1ccc(N2N=NCC2c2ccncc2)cc1` (configuration not stated), the ED50 in the data set filed under Mus musculus [1] came to 239 mg/kg; in the data set on Mus musculus [3], 203 mg/kg. Moreover, the TD50 in the data set listed under Mus musculus [2] came out at 586 mg/kg. The selectivity ratio in data set [4] turned out to be 2.9; in data set [5] it was 2.5.

Regarding `c1ccc(N2N=NCC2c2ccncc2)cc1` (configuration not stated), the results for the ED50 in the data set filed under Mus musculus [1] and with Mus musculus [3] were 165 mg/kg and 107 mg/kg, respectively. Moreover, the TD50 in the data set listed under Mus musculus [2] amounted to 590 mg/kg. Further, the selectivity ratio amounted to 5.6 in data set [4] and 3.6 in data set [5].

With `Clc1ccc(-n2nncc2-c2ccccc2)cc1`, the ED50 was found to be 233 mg/kg in the data set listed under Mus musculus [1] and 95.2 mg/kg in the data set with Mus musculus [3]. Besides, the TD50 in the data set filed under Mus musculus [2] worked out at 466 mg/kg. The selectivity ratio is 4.9 in data set [4] and 2 in data set [5].

The values above are taken from ChEMBL document CHEMBL1123951, “Triazolines. 14. 1,2,3-Triazolines and triazoles, a new class of anticonvulsants. Drug design and structure-activity relationships” (J Med Chem, 1988).
